{
  "source": "patent US20130225404A1",
  "about": "“PESTICIDAL COMBINATIONS” (SYNGENTA PARTICIPATIONS AG, priority 2010, published 2013)",
  "test_system": "rice plants",
  "assay": "Safening of rice grown from treated seeds against clodinafop herbicide, greenhouse tray test",
  "format": "in vivo",
  "details": "rice seed treatment; for Av. shoot weight: average dry shoot weight five weeks after the clodinafop treatment; for Av. plant height: determined five weeks after the clodinafop treatment",
  "description": "Various batches of treated rice seeds were sown in soil contained in trays (0.0425 m^2) at a rice density of 120 kg/ha and their growth monitored in a green house (at 25° C. during the day and 23° C. during the nght). The amounts of the active ingredients, i.e. thiamethoxam (Cruiser 350FS) and N-(2-methoxybenzoyl)-4-[(methylaminocarbonyl)amino]benzene-sulfonamide (safener) used for the rice seed treatment are indicated in the table below. The trays were flooded with water three days after sowing. Nine days after sowing the rice plants were sprayed with the herbicide clodinafop in an amount equal to 100 g/ha. The average plant height and the average dry shoot weight were determined five weeks after the clodinafop treatment.\nA similar procedure was performed on untreated seeds except that the clodinafop treatment was omitted (control).\nThe same procedure as descrbed above was repeated except that the rice plants were treated with the herbicide clodinafop fifteen days after sowing.",
  "key": {"[1]": {"details": "clodinafop 100 g/ha sprayed 9 days after sowing"}, "[2]": {"details": "clodinafop 100 g/ha sprayed 15 days after sowing"}},
  "data": [
    {"smiles": "CNC(=O)Nc1ccc(S(=O)(=O)NC(=O)c2ccccc2OC)cc1", "note": "[A, N-(2-methoxybenzoyl)-4-[(methylaminocarbonyl)amino]benzene-sulfonamide]", "values": [
      {"measurement": "Av. shoot weight", "setting": "[1]", "value": 230, "unit": "mg"},
      {"measurement": "Av. plant height", "setting": "[1]", "value": 24, "unit": "cm"},
      {"measurement": "Av. shoot weight", "setting": "[2]", "value": 400, "unit": "mg"},
      {"measurement": "Av. plant height", "setting": "[2]", "value": 35, "unit": "cm"}
    ]},
    {"smiles": "CNC(=O)Nc1ccc(S(=O)(=O)NC(=O)c2ccccc2OC)cc1", "note": "[C, N-(2-methoxybenzoyl)-4-[(methylaminocarbonyl)amino]benzene-sulfonamide]", "values": [
      {"measurement": "Av. shoot weight", "setting": "[1]", "value": 300, "unit": "mg"},
      {"measurement": "Av. plant height", "setting": "[1]", "value": 30, "unit": "cm"},
      {"measurement": "Av. shoot weight", "setting": "[2]", "value": 510, "unit": "mg"},
      {"measurement": "Av. plant height", "setting": "[2]", "value": 40, "unit": "cm"}
    ]}
  ]
}
